# Laboratory results published in US11510899B2, “RTX toxin production inhibitor and composition for treating symptom of vibrio infection by using same” (priority 2018, dated 2022).
# Legend:
# Vibrio parahaemolyticus = assay: Cytotoxicity of Vibrio parahaemolyticus; assay type: cell-based; conditions: CM2660 at different concentrations
# [1] = test system: exsA, va11668, vopQ, vopS and vopR; assay: qRT-PCR of exsA and T3SS genes in Vibrio alginolyticus; assay type: cell-based; conditions: 20 μM, A600=0.5, vs 2% DMSO
# Protocol: Vibrio alginolyticus is also a pathogenic Vibrio bacterium that has T3SS and is cytotoxic, similar to Vibrio parahaemolyticus. In order to determine the toxin inhibition effect of CM2660 in Vibrio alginolyticus, Vibrio alginolyticus was cultured in TSB (tryptic soy broth) medium supplemented with 1% NaCl.
# Vibrio cholerae = assay: Hemolytic activity of Vibrio cholerae supernatant on horse blood agar; conditions: 20 μM, 37° C., 24 hours
# Protocol: Vibrio cholerae supernatant when treated with DMSO was dotted in horse blood agar medium and cultured at 37° C. for 24 hours.
# [2] = test system: exsA, vp1668, vopQ, vopS and vopR; assay: qRT-PCR of exsA and T3SS-1 genes in Vibrio parahaemolyticus; assay type: cell-based; conditions: 20 μM, DMEM, vs 2% DMSO
# Excerpt: In V. parahaemolyticus, HlyU is known to activate the gene expression of the master transcriptional regulator, exsA of type III secretion system-1 (T3SS-1), which causes cytotoxicity. In order to determine whether or not CM2660 reduces the expression of the exsA gene by inhibiting HlyU of V. parahaemolyticus, virulence gene expression of V. parahaemolyticus was investigated using the same method as in (2) of Experimental Example 1.
# In order to induce the T3SS-1 gene expression of Vibrio parahaemolyticus, Vibrio parahaemolyticus was cultured in Dulbecco's Modified Eagle Medium (DMEM) medium.
# Meanwhile, since ExsA activates the expression of the T3SS-1 gene of Vibrio parahaemolyticus, T3SS-1 gene expression was detected using the same sample to determine whether or not the expression of exsA leads to a decrease in T3SS-1 gene expression (FIG. 24).
# HlyU [3] = molecular target: T1, HlyU (Vibrio vulnificus, UniProt A0A3Q0L222); assay: Mass spectrometry / X-ray crystallography of HlyU protein treated with CM2660; assay type: binding
# T1 sequence (A0A3Q0L222 1-98): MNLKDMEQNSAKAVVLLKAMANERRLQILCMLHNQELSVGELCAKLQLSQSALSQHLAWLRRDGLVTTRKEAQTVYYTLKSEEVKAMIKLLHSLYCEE
# Protocol: In order to more accurately identify the HlyU inhibition mechanism of CM2660, the crystal structure of CM2660-treated HlyU protein was detected by X-ray crystallography and compared with that of the HlyU protein not treated with CM2660 (FIG. 17, FIG. 18).
# In order to identify this in more detail, samples of HlyU protein treated with CM2660 were analyzed using mass spectrometry.
# HlyU [4] = assay: Amount of HlyU protein in cells of Vibrio vulnificus; assay type: cell-based; conditions: various concentrations, added at A600=0.2, harvested at A600=0.5, vs 2% DMSO
# Protocol: In order to determine the mechanism by which the HlyU inhibitor CM2660 inhibited the activity of HlyU, Vibrio vulnificus was cultured at 30° C. and treated with various concentrations of CM2660 at A600=0.2. […] Then, the cell solution was centrifuged at A600=0.5, indicating the time when the intracellular amount of HlyU was maximized, and only the cell portion (pellet) was recovered. The recovered cells were chemically lysed to determine the amount of HlyU in each sample (FIG. 9).
# HlyU [5] = molecular target: T1, HlyU; assay: High-throughput screening with E. coli reporter strain (pKK1306 + pZW1608 lux reporter); assay type: cell-based
# Excerpt: Meanwhile, to perform E. coli reporter strain construction and high-throughput screening, a pKK1306 plasmid cloned to induce wild-type hlyU genes by arabinose was constructed. The reporter plasmid is pZW1608, in which the promoter of the VVMO6_00539 gene, expression of which is directly repressed by HlyU, is cloned in front of the bioluminescence operon (lux operon). These two plasmids were simultaneously transformed into E. coli DH5 to construct an E. coli reporter strain (FIG. 1). FIG. 1 is a schematic diagram illustrating the strategy used to screen selective inhibitors of HlyU.
# For the screening, approximately 8400 low-molecular-weight compounds were obtained from Korea Compound Bank and used in this experiment. […] When the absorbance at 600 nm (A600) of the culture solution, which was cultured at 37° C., reached 0.5, 100 μl of the culture solution was transferred to a 96-well black plate. […] While culturing at 37° C., the growth and bioluminescence of the reporter strain were measured using an Infinite™ M200 microplate reader (Tecan, Mannedorf, Switzerland). The relative luminescence unit (RLU) was calculated through normalization by division of the measured luminescence value by the absorbance. RLU=luminescence/absorbance [Equation 1] […]
# HlyU [6] = molecular target: T1, HlyU; assay: Electrophoretic mobility shift assay (EMSA), HlyU binding to rtxA promoter DNA
# Protocol: In order to investigate the effect of CM2660 on the DNA-binding capability of the HlyU protein, electrophoretic mobility shift assay (EMSA) experiments were performed using DNA at the known HlyU-binding rtxA promoter site.
# The promoter site of the rtxA gene was amplified by PCR using ^32P-labeled primer, PrtxA-R (5′-[…]-3′) and unlabeled primer PrtxA-F (5′-[…]-3′). This DNA probe was reacted with 50 nM or 100 nM HlyU, 100 μM CM2660 or DMSO in reaction buffer (10 mM Tris-Cl, 50 mM KCl, 5 mM MgCl2, 0.75 mM DTT and 5% glycerol, 0.1 μg poly(dl-dC)) at 25° C. for 30 minutes.
# The DNA-HlyU complex was electrophoresed on a polyacrylamide gel and phosphoimaged through Typhoon FLA7000 to determine the band position (FIG. 15, FIG. 16).
smiles,measurement,setting,value
"O=C(C#Cc1ccccc1)Nc1scc2c1c(=O)oc1ccccc12 [CM2660, N-(4-oxo-4H-thieno[3,4-c]chromen-3-yl)-3-phenylprop-2-ynamide]",cytotoxicity of Vibrio parahaemolyticus,Vibrio parahaemolyticus,decrease in the cytotoxicity
same,exsA mRNA level,[1],significantly reduced
same,va11668 mRNA level,[1],significantly reduced
same,vopQ mRNA level,[1],significantly reduced
same,vopR mRNA level,[1],significantly reduced
same,vopS mRNA level,[1],significantly reduced
same,hemolytic activity of Vibrio cholerae (clear zone),Vibrio cholerae,reduced
same,exsA mRNA level,[2],significantly decreased
same,vopQ mRNA level,[2],decreased significantly
same,vopR mRNA level,[2],decreased significantly
same,vopS mRNA level,[2],decreased significantly
same,vp1668 mRNA level,[2],decreased significantly
same,covalent binding to cysteine residue at position 30 of HlyU,HlyU [3],covalently bound
same,amount of HlyU in the cells,HlyU [4],no significant difference
same,bioluminescence of E. coli reporter strains,"HlyU [5]; 20 μM compound, 0.0002% arabinose, vs DMSO",significantly increased
same,HlyU inhibitory effect among the seven screened compounds,"HlyU [5]; Example 1, E. coli and Vibrio reporter strains",best effect
same,DNA-binding capability of HlyU,"HlyU [6]; 100 μM compound, 50 nM or 100 nM HlyU, 25° C., 30 minutes",significantly decreased
same,"DNA-binding capability of HlyU, concentration dependence",HlyU [6]; CM2660 at different concentrations,decrease became greater as the concentration of CM2660 increased
